Laboratory results reported in US12685735B2 (Foghorn Therapeutics Inc., priority 2020, dated 2026).

Assays:
BRG-1 = BRG-1 (Homo sapiens, UniProt P51532); assay: ATPase catalytic activity assay of BRG-1 (ADP-Glo); assay type: biochemical; details: ATPase catalytic activity, ADP-Glo, 30 nM BRG-1, 400 μM ATP; for IC50: read-out: BRG1 IC50 (μM)*; for Emax: read-out: BRG1 Max % Inhibition
Summary of the method: (§1)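 ATPase activity of BRG-1 or BRM was read by ADP-Glo. Residual ATP was depleted (40 min, room temperature), then ADP was converted to ATP (60 min, room temperature) and measured as luciferase luminescence.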

BRM = BRM (Homo sapiens, UniProt P51531); assay: ATPase catalytic activity assay of BRM (ADP-Glo); assay type: biochemical; details: 30 nM BRM, 400 μM ATP; for IC50: read-out: BRM IC50 (μM)*
Summary of the method: as §1

[1] = test system: Uveal melanoma cell lines, 92-1 or MP41; assay: Comparison of BRG1/BRM inhibitor to clinical PKC and MEK inhibitors, cell growth (Cell-titer glo, 3 days); assay type: cell-based; details: 92-1 or MP41 cells, versus LXS196 and Selumetinib
Experimental: Procedure: Uveal melanoma cell lines, 92-1 or MP41, were plated in 96 well plates in the presence of growth media (See Table 6). […] Cells were incubated at 37 degrees Celsius for 3 days. After three days of treatment, cell growth was measured with Cell-titer glow (Promega), and luminescence was read on an Envision plate reader (Perkin Elmer).

Chain of BRM (P51531 whole entry): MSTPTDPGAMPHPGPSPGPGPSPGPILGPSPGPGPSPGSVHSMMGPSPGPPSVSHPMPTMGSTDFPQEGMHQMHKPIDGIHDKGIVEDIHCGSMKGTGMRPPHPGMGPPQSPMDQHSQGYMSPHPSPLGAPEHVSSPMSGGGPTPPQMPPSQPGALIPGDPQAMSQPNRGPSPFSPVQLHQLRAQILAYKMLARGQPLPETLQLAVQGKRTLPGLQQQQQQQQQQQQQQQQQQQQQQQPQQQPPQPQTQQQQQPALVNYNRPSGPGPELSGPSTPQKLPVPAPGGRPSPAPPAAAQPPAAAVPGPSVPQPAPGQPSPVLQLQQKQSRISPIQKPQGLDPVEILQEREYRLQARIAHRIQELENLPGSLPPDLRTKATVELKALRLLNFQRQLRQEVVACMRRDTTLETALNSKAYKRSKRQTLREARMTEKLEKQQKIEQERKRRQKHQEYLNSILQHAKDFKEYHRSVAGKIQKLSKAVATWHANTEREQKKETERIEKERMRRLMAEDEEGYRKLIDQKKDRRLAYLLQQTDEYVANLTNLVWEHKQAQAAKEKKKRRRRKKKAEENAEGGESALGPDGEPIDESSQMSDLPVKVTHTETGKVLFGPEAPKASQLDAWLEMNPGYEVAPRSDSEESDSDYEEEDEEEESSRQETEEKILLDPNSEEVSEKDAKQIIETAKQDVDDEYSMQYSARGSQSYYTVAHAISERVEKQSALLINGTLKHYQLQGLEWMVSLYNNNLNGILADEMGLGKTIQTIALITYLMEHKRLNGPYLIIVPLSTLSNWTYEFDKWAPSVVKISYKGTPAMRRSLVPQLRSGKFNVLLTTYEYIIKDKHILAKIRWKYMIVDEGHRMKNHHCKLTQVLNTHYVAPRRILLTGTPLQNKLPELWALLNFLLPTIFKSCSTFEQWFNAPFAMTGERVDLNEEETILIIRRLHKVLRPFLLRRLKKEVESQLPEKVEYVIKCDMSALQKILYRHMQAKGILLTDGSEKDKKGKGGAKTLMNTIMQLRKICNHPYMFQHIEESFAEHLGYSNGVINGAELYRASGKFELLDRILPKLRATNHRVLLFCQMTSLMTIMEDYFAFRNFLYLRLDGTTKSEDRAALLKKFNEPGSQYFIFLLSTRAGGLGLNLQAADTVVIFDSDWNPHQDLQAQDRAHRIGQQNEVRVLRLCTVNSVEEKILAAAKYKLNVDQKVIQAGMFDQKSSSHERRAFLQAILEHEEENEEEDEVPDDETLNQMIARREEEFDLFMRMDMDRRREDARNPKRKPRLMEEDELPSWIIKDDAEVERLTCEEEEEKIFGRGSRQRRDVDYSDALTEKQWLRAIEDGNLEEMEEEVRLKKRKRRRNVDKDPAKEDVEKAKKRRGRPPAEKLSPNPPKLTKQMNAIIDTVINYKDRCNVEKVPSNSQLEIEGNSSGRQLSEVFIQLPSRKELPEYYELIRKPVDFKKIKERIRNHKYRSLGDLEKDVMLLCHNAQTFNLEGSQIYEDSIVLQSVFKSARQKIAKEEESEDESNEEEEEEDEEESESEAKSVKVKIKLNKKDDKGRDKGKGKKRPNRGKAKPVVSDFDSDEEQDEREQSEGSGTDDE
Chain of BRG-1 (P51532 whole entry): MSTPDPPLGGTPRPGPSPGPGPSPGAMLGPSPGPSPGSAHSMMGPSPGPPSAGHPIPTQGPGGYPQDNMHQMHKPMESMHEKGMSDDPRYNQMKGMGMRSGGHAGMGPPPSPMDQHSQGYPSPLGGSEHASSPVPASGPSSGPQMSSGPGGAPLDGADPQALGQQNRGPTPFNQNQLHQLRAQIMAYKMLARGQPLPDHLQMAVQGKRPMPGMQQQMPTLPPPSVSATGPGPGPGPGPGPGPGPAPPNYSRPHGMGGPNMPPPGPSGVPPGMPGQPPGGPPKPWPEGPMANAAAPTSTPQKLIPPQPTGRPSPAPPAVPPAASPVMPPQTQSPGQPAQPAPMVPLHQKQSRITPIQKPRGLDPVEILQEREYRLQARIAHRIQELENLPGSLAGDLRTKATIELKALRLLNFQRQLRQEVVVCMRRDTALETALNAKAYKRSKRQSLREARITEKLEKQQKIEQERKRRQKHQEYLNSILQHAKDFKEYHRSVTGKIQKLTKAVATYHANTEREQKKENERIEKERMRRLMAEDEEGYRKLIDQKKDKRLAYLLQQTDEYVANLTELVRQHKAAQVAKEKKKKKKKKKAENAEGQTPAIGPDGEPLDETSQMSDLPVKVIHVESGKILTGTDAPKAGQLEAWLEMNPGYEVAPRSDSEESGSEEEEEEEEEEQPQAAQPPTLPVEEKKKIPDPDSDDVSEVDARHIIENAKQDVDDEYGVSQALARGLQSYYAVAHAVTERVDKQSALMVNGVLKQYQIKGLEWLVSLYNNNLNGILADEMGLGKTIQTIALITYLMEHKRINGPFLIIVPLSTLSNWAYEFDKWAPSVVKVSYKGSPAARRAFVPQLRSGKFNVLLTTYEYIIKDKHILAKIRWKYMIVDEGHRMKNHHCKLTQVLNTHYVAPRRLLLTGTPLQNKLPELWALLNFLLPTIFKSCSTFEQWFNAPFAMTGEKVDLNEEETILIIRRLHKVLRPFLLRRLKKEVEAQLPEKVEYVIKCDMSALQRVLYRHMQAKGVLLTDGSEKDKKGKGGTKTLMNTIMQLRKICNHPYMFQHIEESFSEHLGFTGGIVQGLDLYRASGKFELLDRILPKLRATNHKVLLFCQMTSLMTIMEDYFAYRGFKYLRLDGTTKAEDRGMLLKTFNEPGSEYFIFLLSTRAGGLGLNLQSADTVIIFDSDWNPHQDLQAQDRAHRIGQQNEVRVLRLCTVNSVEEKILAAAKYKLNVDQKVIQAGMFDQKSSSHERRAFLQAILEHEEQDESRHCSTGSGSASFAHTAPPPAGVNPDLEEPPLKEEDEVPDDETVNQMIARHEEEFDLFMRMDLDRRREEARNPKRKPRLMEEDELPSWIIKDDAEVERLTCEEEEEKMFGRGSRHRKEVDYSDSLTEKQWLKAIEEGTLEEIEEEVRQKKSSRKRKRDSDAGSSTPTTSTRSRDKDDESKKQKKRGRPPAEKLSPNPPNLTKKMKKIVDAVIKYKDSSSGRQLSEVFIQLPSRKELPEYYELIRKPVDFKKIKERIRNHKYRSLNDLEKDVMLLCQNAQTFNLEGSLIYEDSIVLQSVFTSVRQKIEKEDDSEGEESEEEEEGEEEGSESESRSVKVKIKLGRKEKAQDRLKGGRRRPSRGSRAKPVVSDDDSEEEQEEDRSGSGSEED

| IC50 (BRG-1) [µM] | Emax (BRG-1) [%] | BRM Max % Inhibition (BRM) [%] | IC50 (BRM) [µM] | Structure (SMILES) | growth inhibition of uveal melanoma cells compared with the clinical PKC and MEK inhibitors ([1]; 0 to 10 micromolar, 3 days, FIGS. 2A and 2B) | onset of inhibition compared with the clinical PKC and MEK inhibitors [1] |
| --- | --- | --- | --- | --- | --- | --- |
| 0.1 to 1 | > 95 | >95 | < 0.1 | C[C@@H]1CN(c2cccc(-c3csc(NC(=O)CNC(=O)c4cccc(C5(C#N)COC5)c4)n3)c2)C[C@H](C)O1 [Compound 418, 3-(3-cyanooxetan-3-yl)-N-(2-((4-(3-((cis)-2,6-dimethylmorpholino)phenyl)thiazol-2-yl)amino)-2-oxoethyl)benzamide] |  |  |
| 0.1 to 1 | > 95 | >95 | < 0.1 | C[C@@H]1CN(c2cccc(-c3csc(NC(=O)CNC(=O)c4cccc(C5(C(F)F)COC5)c4)n3)c2)C[C@H](C)O1 [Compound 419, 3-(3-(difluoromethyl)oxetan-3-yl)-N-(2-((4-(3-((cis)-2,6-dimethylmorpholino)phenyl)thiazol-2-yl)amino)-2-oxoethyl)benzamide] |  |  |
| 1 to 5 | > 95 | >95 | 0.1 to 1 | CO[C@H]1C[C@@](F)(c2cccc(C(=O)NCC(=O)Nc3nc(-c4cccc(N5C[C@@H](C)O[C@@H](C)C5)n4)cs3)c2)C1 [Compound 426, N-(2-((4-(6-((cis)-2,6-dimethylmorpholino)pyridin-2-yl)thiazol-2-yl)amino)-2-oxoethyl)-3-((cis)-1-fluoro-3-methoxycyclobutyl)benzamide] |  |  |
| 0.1 to 1 | > 95 | >95 | < 0.1 | Cn1ccc2ccc(-c3csc(NC(=O)CNC(=O)c4ccc5c(c4)[C@@](C)(C#N)CCO5)n3)cc2c1=O [Compound 433, (S)-4-cyano-4-methyl-N-(2-((4-(2-methyl-1-oxo-1,2-dihydroisoquinolin-7-yl)thiazol-2-yl)amino)-2-oxoethyl)chromane-6-carboxamide] |  |  |
| 1 to 5 | > 90 | >90 | 0.1 to 1 | C[C@@H]1CN(c2cccc(-c3csc(NC(=O)[C@H](CO)NC(=O)c4ccnc(C(C)(C)C)c4)n3)c2)C[C@H](C)O1 [Compound 434, 2-(tert-butyl)-N-((S)-1-((4-(3-((cis)-2,6-dimethylmorpholino)phenyl)thiazol-2-yl)amino)-3-hydroxy-1-oxopropan-2-yl)isonicotinamide] |  |  |
| 1 to 5 | > 95 | >95 | 0.1 to 1 | C[C@@H]1CN(c2cccc(-c3csc(NC(=O)[C@H](C)NC(=O)c4ccnc(C(C)(C)C)c4)n3)c2)C[C@H](C)O1 [Compound 435, 2-(tert-butyl)-N-((S)-1-((4-(3-((cis)-2,6-dimethylmorpholino)phenyl)thiazol-2-yl)amino)-1-oxopropan-2-yl)isonicotinamide] |  |  |
| 1 to 5 | > 90 | >90 | 0.1 to 1 | COC[C@H](NC(=O)c1ccnc(C(C)(C)C)c1)C(=O)Nc1nc(-c2cccc(N3C[C@@H](C)O[C@@H](C)C3)c2)cs1 [Compound 436, 2-(tert-butyl)-N-((S)-1-((4-(3-((cis)-2,6-dimethylmorpholino)phenyl)thiazol-2-yl)amino)-3-methoxy-1-oxopropan-2-yl)isonicotinamide] |  |  |
| 0.1 to 1 | > 95 | >95 | < 0.1 | C[C@@H]1CN(c2cccc(-c3csc(NC(=O)CNC(=O)c4ccc5c(c4)[C@@](C)(O)COC5)n3)c2)C[C@H](C)O1 [Compound 437, (R)-N-(2-((4-(3-((cis)-2,6-dimethylmorpholino)phenyl)thiazol-2-yl)amino)-2-oxoethyl)-4-hydroxy-4-methylisochromane-6-carboxamide] |  |  |
| 1 to 5 | > 95 | >95 | 0.1 to 1 | C[C@@H]1CN(c2cccc(-c3csc(NC(=O)CNC(=O)c4ccc5c(c4)[C@](C)(O)COC5)n3)c2)C[C@H](C)O1 [Compound 438, (S)-N-(2-((4-(3-((cis)-2,6-dimethylmorpholino)phenyl)thiazol-2-yl)amino)-2-oxoethyl)-4-hydroxy-4-methylisochromane-6-carboxamide] |  |  |
| 0.1 to 1 | > 95 | >95 | < 0.1 | C[C@@H]1CN(c2cccc(-c3csc(NC(=O)CNC(=O)c4cncc(C(C)(C)C)c4)n3)c2)C[C@H](C)O1 [Compound 443, 5-(tert-butyl)-N-(2-((4-(3-((cis)-2,6-dimethylmorpholino)phenyl)thiazol-2-yl)amino)-2-oxoethyl)nicotinamide] |  |  |
| 0.1 to 1 | > 95 | >95 | < 0.1 | C[C@@H]1CN(c2cccc(-c3csc(NC(=O)CNC(=O)c4ccc5c(c4)C(C#N)(CO)CCO5)n3)c2)C[C@H](C)O1 (stereo partly drawn) [Compound 444, 4-cyano-N-(2-((4-(3-((cis)-2,6-dimethylmorpholino)phenyl)thiazol-2-yl)amino)-2-oxoethyl)-4-(hydroxymethyl)chromane-6-carboxamide] |  |  |
|  |  |  |  | CSCC[C@H](NC(=O)c1ccc(N)cc1)C(=O)Nc1nc(-c2cccc(-c3ccncc3)c2)cs1 [Compound A] | comparable growth inhibition | faster onset of inhibition |
